Reference: patent publication US20110281951A1, “Compositions and methods for treating amyloidosis” (priority 1999, published 2011)
Several values for one entry are separate records, joined by “and”; a condition that tells them apart may be missing. Identical values can stand only once.

Legend:
[1] = target: T1, splenic Amyloid A fibrils (Mus musculus, UniProt P05367); assay: Acute AEF-AgNO3-induced amyloidosis mouse model (secondary amyloidosis); format: in vivo, mice; conditions: for % PC (splenic AA fibrils, % of positive control): 5 days; for Activity (in vivo, secondary amyloidosis): overall grade over the concentrations tested
T1 construct: from tissue; host or cells: spleen of CBA/J mice (AEF/AgNO3-induced amyloidosis)
T1 sequence (P05367 20-95 limits assumed): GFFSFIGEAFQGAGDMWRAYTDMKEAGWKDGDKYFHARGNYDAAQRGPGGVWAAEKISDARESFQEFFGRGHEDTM
Description: The in vivo screening is based on the acute AEF-AgNO3-induced amyloidosis mouse model. The test is conducted on a total of 6 days and each compound administered in the drinking solution for a 5-day period.
Female mice of CBA/J strain are individually identified, weighed and assigned to a group of 5 animals following an acclimation period. The amyloidosis is induced by intravenous injection of 100 μg of AEF (amyloid enhancing factor) concomitantly with a subcutaneous injection of 0.5 ml of 2% of a solution of AgNO3. Animals in the negative control group are injected with saline only.
Twenty-four hours following the amyloidosis induction, the compound is added to a 1% solution of sucrose (vehicle) and distributed to animals in drinking bottles for a period of 5 days. Animals in the positive control group receive the vehicle only. Drinking solutions are made available ad libitum to each group of animals and the volume measured before and after use to calculate the consumption of each solution. Blood samples are collected for in vitro determination of plasma serum amyloid A levels.
On day 6, mice are sacrificed, weighed and organs such as spleen are existed and fixed in acid alcohol. Spleen samples are processed, embedded in paraffin wax and cut inyo sections. Spleen sections from each animal are stained with the Congo Red staining solution and the splenic Amyloid A fibrils aggregation evaluated by image analysis. Results are expressed as % of AA fibrils deposited in the splenic perifollicular area. Raw data is analyzed.
Mean of mouse body weight and the mean consumption of the drinking solution (ml) are compiled. Variation of the body weight before the induction and at the end of the assay is calculated (%). The dose level of the compound consumed (mg/kg/day) is calculated as well.
P-values for Student t-test and Mann-Whitney tests comparing a group to the positive control are calculated using GraphPad Prism computer software. The mean of the image analysis reading of spleen serious for a group is expressed as percentage of the mean of the image analysis readings for the positive control group (% PC).

Aβ(1-40) = target: T2, Aβ(1-40) (Homo sapiens, UniProt P05067); assay: Circular dichroism analysis, pre-incubation assay, β-sheet at 218 nm; format: biochemical; conditions: CD 218 nm, 0.02M Tris pH 7.4
T2 construct: Prepare a fresh 40 μm solution of Aβ(1-40) in 0.02M Tris, pH 7.4; made in house; host or cells: chemical synthesis (FMOC), HPLC purified
Description: The assay is conducted as follows:
Instrument: JASCO J-715 Spectropolarimeter.
Cell/cuvette: Hellma quartz (QS) with 1.0 mm pathlength Room temperature. Wavelength interval: 250 nm-190 nm.
Band width: 1.0 nm Response time: 1 sec Scanning speed: 20 nm/min Number of accumulations/spectrum: 5
1. Prepare a fresh 40 μm solution of Aβ(1-40) in 0.02M Tris, pH 7.4.
2. Prepare a 1 mM solution of test compounds in 0.02M Tris, pH 7.4.
3. Combine equal volumes of the Aβ(1-40) and test compound solutions.
4. Incubate the mixtures for 19 h.
5. Take the CD spectrum using the parameters above.
6. Return the mixtures to the incubator and incubate to 43 h.
7. Take the CD spectrum using the parameters above. • Inhibition of Aβ40 assembly/aggregation is determined by comparing the amount of b-sheet structure) appearing at lambda=218 nm) obtained in control and in treated sample at each timepoint.

IAPP [2] = target: T3, IAPP (Homo sapiens, UniProt P10997); assay: Circular dichroism analysis of IAPP-associated fibril formation (Example 7); format: biochemical; set-up: add 10 μL of 10 mg/mL IAPP stock solution (final 100 ng peptide)
T3 sequence (P10997 34-70 limits assumed): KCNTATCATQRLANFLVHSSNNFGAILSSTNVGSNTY
Description: Circular dichroism analysis was conducted to confirm the activity of certain therapeutic compounds in preventing or inhibiting IAPP-associated fibril formation in accordance with the present disclosure by determining the presence or absence of […] conformation.
Instrument: JASCO J-715 Spectropolarimeter
Cell cuvette: Hellma quartz (QS) with 1.0 mm pathlength
Wavelength interval: 250 nm-190 nm
Scanning speed: 20 nm/min
The assay, a co-incubation procedure, examines the ability of a compound or substance to inhibit the assembly of amyloid fibrils, e.g., to test for the presence of the amyloidotic β-sheet conformation in the presence of soluble IAPP. Samples are run in the presence and absence (i.e., water alone) of buffering agent, which is done to determine if competitive effects are seen with the ionic buffer (usually phosphate).
Add components used at a molar ratio of 1:10 [ peptide:compound]; add 10 μL of 10 mg/mL IAPP stock solution (final […] peptide) to the aqueous solution containing compound to a final volume of 400 μL. The pH of the final assay solution is measured to ensure there is no fluctuation and the spectrum is accumulated using the parameters as shown above.
Add desired amount of compound to achieve a 1:10 molar ratio in 10 mM phosphate buffer, pH 7. Add 10 μL of 10 mg/mL IAPP stock solution (final peptide 100 μg) to the phosphate buffered solution containing the compound and bring to a final volume of 400 μL. The pH of the final assay solution is measured to ensure there is no fluctuation and the spectrum is accumulated using the parameters as shown above.
In both assays, a control sample is run with each test group. This control contains peptide only in water or buffer at a similar final volume of 400 μl. Spectra for the control are collected initially (first run) and at the end of the test (final run) to ensure that the peptide has not undergone extensive aggregation during the course of the assay. Spectra for the controls are used to compare with the measurements obtained with the treated samples.
Make fresh 1 mg/mL stock solution of IAPP in 10 mM phosphate buffer, pH 7. Add desired amount of compound to achieve a 1:10 molar ratio in 10 mM phosphate buffer, pH 7. Incubate for 3 days at room temperature. Make up to final volume of 400 μL with 10 mM phosphate buffer, pH 7. The pH of the final assay solution is measured to ensure there is no fluctuation and the spectrum is accumulated using the parameters as shown above.
A similar control is run for comparative purposes.
Plots of the spectra (control and treated) are individually assembled and the changes in ellipticity at 218 nm are examined. This minimum is directly correlated with the amount of β-sheet present in the sample. Changes in either a positive or negative direction are noted and a relative value (“active” or “not active”) assigned to the compound as a measure of activity. In a subsequent experiment with the compounds at a molar ratio of 1:5 [ peptide:compound], the degree of randomness was noted, an indication of the ability of the compounds to prevent amyloid aggregation. A more positive number indicates less β-sheet formation. The ability of a compound to prevent β-sheet formation for at least 24 h is important, as the non-aggregated amyloid fibrils will be excreted in the soluble form. In the control noted below, the decrease in CD (mdegs) may indicate that some of the peptide is aggregating under these conditions.

IAPP [3] = target: T3, IAPP; assay: Thioflavine T spectroscopy, rate of amyloid fibril formation; format: biochemical; conditions: ThT 62.5 μM; excitation 440 nm, emission 482 nm
Description: Detection of ThT fluorescence can be used as a sensitive assay for amyloid fibril formation under different conditions. This assay has been used in experiments to determine the effects of compounds of the invention on amyloid fibril formation.
Human IAPP was dissolved in 40% trifluoroethanol and freeze-dried into conveniently-sized aliquots. IAPP was prepared immediately before the measurements by dissolving in 40% 1,1,1,3,3,3-hexafluoro-2-propanol (HFIP) in water to maintain the peptide in alpha helical conformation and soluble. A stock solution of ThT (2.5 mM) was prepared, 7.9 mg in 10 mL Tris-HCl pH 7.0 and filtered (0.22 μm). Solutions were kept in the dark until use. Fluorescence was examined at 440 nm excitation (slit 5 nm), and emission at 482 nm (slit 10 nm) with stirring. […] of ThT stock (final concentration 62.5 μM) was added to peptide sample and made up to 1 mL in the cuvette. The sample was stirred for 5 min. before taking a reading. Measurements were made at an initial time point (5 min. from sample preparation), at intervals over the next 4-6 h and after overnight incubation at room temperature.

[4] = 6.25 mg/ml in drinking solution
[5] = 12.5 mg/ml in drinking solution
[6] = 25.0 mg/ml in drinking solution
[7] = molar ratio 1:5 peptide:compound, 24 h
[8] = molar ratio 1:5 peptide:compound
[9] = molar ratio 1:5 peptide:compound, more positive = less β-sheet

T2 sequence (P05067 672-711 limits assumed): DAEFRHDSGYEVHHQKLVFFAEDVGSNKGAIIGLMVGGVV

## COc1cc2c(cc1OC)CN(CCCS(=O)(=O)O)CC2 [I, 3-[2-(6,7-dimethoxy-1,2,3,4-tetrahydroisoquinolinyl)]-1-propanesulfonic acid]
[1]; [4]
  % PC (splenic AA fibrils, % of positive control): 87 % PC
[1]; [5]
  % PC (splenic AA fibrils, % of positive control): 76 % PC and 68 % PC
[1]; [6]
  % PC (splenic AA fibrils, % of positive control): 69% PC
[1]
  Activity (in vivo, secondary amyloidosis): Moderate

## O=S(=O)(O)CCCN1CCCc2ccccc21 [III, 3-[1-(1,2,3,4-tetrahydroquinolinyl)]-1-propanesulfonic acid]
Aβ(1-40)
  relative inhibition compared to Aβ alone, incubation time 0 h: — (No effect compared to Aβ alone)
  relative inhibition compared to Aβ alone, incubation time 19 h: + (+: 0-25%)
  relative inhibition compared to Aβ alone, incubation time 43 h: ++ (++: 25-50%)
[1]; 3.5 mg/ml in drinking solution
  % PC (splenic AA fibrils, % of positive control): 113% PC
[1]; [4]
  % PC (splenic AA fibrils, % of positive control): 87% PC
[1]; [5]
  % PC (splenic AA fibrils, % of positive control): 54 % PC and 67 % PC and 56 % PC
[1]; [6]
  % PC (splenic AA fibrils, % of positive control): 82 % PC and 77 % PC
[1]
  Activity (in vivo, secondary amyloidosis): Moderate

## COc1ccc2c(c1)CCN(CCCS(=O)(=O)O)C2 [IX, 3-[2-(6-methoxy-1,2,3,4-tetrahydroisoquinolinyl)]-1-propanesulfonic acid]
Aβ(1-40)
  relative inhibition compared to Aβ alone, incubation time 0 h: + (+: 0-25%)
  relative inhibition compared to Aβ alone, incubation time 19 h: +++ (+++: 50-75%)
  relative inhibition compared to Aβ alone, incubation time 43 h: ++ (++: 25-50%)
[1]; [4]
  % PC (splenic AA fibrils, % of positive control): 74 % PC and 40 % PC
[1]; [5]
  % PC (splenic AA fibrils, % of positive control): 64 % PC and 38 % PC
[1]
  Activity (in vivo, secondary amyloidosis): Active

## Cl.c1ccc2c(c1)CCNC2 [LVIX, 1,2,3,4-tetrahydroisoquinoline, hydrochloride]
IAPP [2]; [7]
  Conformation at 24 h: β
IAPP [2]; molar ratio 1:5 peptide:compound, 24 h, more positive = less β-sheet
  CD at 24 h: (−1.5) mdegs
IAPP [2]; [8]
  Conformation at 48 h: β
  Conformation at T0: Random
IAPP [2]; [9]
  CD at 48 h: −1.3 mdegs
IAPP [2]; molar ratio 1:10 peptide:compound
  Activity (change in ellipticity at 218 nm): Active
IAPP [3]
  IAPP-associated fibril assembly (ThT fluorescence): inhibit or prevent IAPP-associated fibril assembly

## O=S(=O)(O)CCCNCCCO [LVX, 3-(3-hydroxy-1-propyl)amino-1-propanesulfonic acid]
IAPP [2]; [7]
  Conformation at 24 h: Random
IAPP [2]; [8]
  Conformation at 48 h: β
  Conformation at T0: Random
IAPP [2]; [9]
  CD at 48 h: −1.7 mdegs
IAPP [3]
  IAPP-associated fibril assembly (ThT fluorescence): inhibit or prevent IAPP-associated fibril assembly

## N[C@@H](Cc1cccc(CS(=O)(=O)O)c1)C(=O)O [LVXIII, 3-Sulfomethyl-L-phenylalanine]
Aβ(1-40)
  relative inhibition compared to Aβ alone, incubation time 0 h: — (No effect compared to Aβ alone)
  relative inhibition compared to Aβ alone, incubation time 19 h: ++++ (++++: 75-100%)
  relative inhibition compared to Aβ alone, incubation time 43 h: — (No effect compared to Aβ alone)

## O=S(=O)(O)CCCN1CCc2ccccc21 [VII, 3-(1-indolinyl)-1-propanesulfonic acid]
Aβ(1-40)
  relative inhibition compared to Aβ alone, incubation time 0 h: + (+: 0-25%)
  relative inhibition compared to Aβ alone, incubation time 19 h: ++ (++: 25-50%)
  relative inhibition compared to Aβ alone, incubation time 43 h: ++ (++: 25-50%)
[1]; [4]
  % PC (splenic AA fibrils, % of positive control): 94 % PC and 91 % PC
[1]; [5]
  % PC (splenic AA fibrils, % of positive control): 83% PC
[1]; [6]
  % PC (splenic AA fibrils, % of positive control): 71 % PC and 97 % PC
[1]
  Activity (in vivo, secondary amyloidosis): Moderate

## CC(=O)NCCCS(=O)(=O)O [VIII, 3-acetylamino-1-propanesulfonic acid]
Aβ(1-40)
  relative inhibition compared to Aβ alone, incubation time 0 h: + (+: 0-25%)
  relative inhibition compared to Aβ alone, incubation time 19 h: ++++ (++++: 75-100%)
  relative inhibition compared to Aβ alone, incubation time 43 h: +++ (+++: 50-75%)

## O=C(NCCCS(=O)(=O)O)c1ccccc1 [X, 3-benzoylamino-1-propanesulfonic acid]
Aβ(1-40)
  relative inhibition compared to Aβ alone, incubation time 0 h: + (+: 0-25%)
  relative inhibition compared to Aβ alone, incubation time 19 h: ++ (++: 25-50%)
  relative inhibition compared to Aβ alone, incubation time 43 h: ++ (++: 25-50%)

## O=S(=O)(O)CCCN1CCC2=C(CCCC2)C1 [XVIII, 3-[2-(1,2,3,4,5,6,7,8-octahydroisoquinolinyl)]-1-propanesulfonic acid]
[1]; 3.13 mg/ml in drinking solution
  % PC (splenic AA fibrils, % of positive control): 74% PC
[1]; [4]
  % PC (splenic AA fibrils, % of positive control): 86% PC
[1]
  Activity (in vivo, secondary amyloidosis): Moderate

## O=C[C@H](NCCCS(=O)(=O)O)[C@@H](O)[C@H](O)[C@H](O)CO [XX, 2-deoxy-2-(3-sulfopropyl)amino-d-glucose]
[1]; [4]
  % PC (splenic AA fibrils, % of positive control): 94% PC
[1]; [5]
  % PC (splenic AA fibrils, % of positive control): 69% PC
[1]
  Activity (in vivo, secondary amyloidosis): Moderate
